Values of other authors as cited in patent publication US20140005280A1, “CARBOXYMETHYL STARCH AND CHITOSAN POLYELECTROLYTE COMPLEXES” (4413261 Canada Inc. (Spencer Canada), priority 2011, published 2014).

Conditions: US Pharmacopeia, 2000

solubility: slightly soluble in water
Structure (SMILES): CC(=O)Oc1ccccc1C(=O)O [aspirin, acetylsalicylic acid]
